Assay results taken from publication PMC2364994, “Complexes With Biologically Active Ligands. Part 1. Synthesis of Coordination Compounds of Diazoxide With Transition- and Main-Group Cations” (Metal-Based Drugs, 1996).

Columns and labels:
Bovine CA II = biological target: T1, Bovine CA II (Bos taurus, UniProt P00921); assay: Maren's micromethod, CO2 hydration; assay type: biochemical; conditions: 0 °C, veronal buffer; E-I technique; unit shows as (M) in the extracted table, text says micromolar range
T1 construct: gene CA2; commercial enzyme (Sigma Chemical Co.); isozyme described as erythrocyte CA
T1 sequence (P00921 2-260): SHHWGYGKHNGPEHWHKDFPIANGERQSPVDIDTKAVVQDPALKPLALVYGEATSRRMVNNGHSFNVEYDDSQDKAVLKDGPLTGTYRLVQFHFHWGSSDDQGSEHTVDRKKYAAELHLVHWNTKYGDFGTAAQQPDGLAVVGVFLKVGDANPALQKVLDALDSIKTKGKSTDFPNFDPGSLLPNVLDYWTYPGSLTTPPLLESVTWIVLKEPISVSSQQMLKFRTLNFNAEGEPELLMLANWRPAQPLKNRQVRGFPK

human CA I = biological target: T2, human CA I (Homo sapiens, UniProt P00915); assay: Maren's micromethod, CO2 hydration; assay type: biochemical; conditions: 0 °C, veronal buffer; E-I technique; unit shows as (M) in the extracted table, text says micromolar range
T2 construct: gene CA1; commercial enzyme (Sigma Chemical Co.); isozyme described as erythrocyte CA
T2 sequence (P00915 2-261): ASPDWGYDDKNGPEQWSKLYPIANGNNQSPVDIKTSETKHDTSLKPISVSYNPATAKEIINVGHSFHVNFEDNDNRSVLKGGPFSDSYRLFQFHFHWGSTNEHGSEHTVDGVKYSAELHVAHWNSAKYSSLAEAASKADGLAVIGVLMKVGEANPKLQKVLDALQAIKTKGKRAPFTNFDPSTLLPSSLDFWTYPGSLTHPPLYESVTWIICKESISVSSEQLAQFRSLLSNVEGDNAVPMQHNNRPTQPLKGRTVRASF

| Substance | IC50 (Bovine CA II) [M] | IC50 (human CA I) [M] |
| --- | --- | --- |
| [PDZO)(OH)a].2HO [compound 14] | 6e-05 | 7.2e-05 |
| [VO(DZO)(OH)].HO [compound 17] | 0.000125 | 0.000105 |
